“Also recorded” adds a separate entry of the source.

One assay deals with primary myoblasts. Description: qPCR of mitochondrial-encoded genes in primary myoblasts with NMNAT1 knockdown. The note with it: knockdown of NMNAT1, NMN. In kind it is cell-based, mice. As to the method:
Primary myoblasts cells were isolated from WT, SIRT1 KO (Price et al., 2012) and PGC-1α/β KO (Zechner et al., 2010) mice as previously described (Price et al., 2012). WT and PGC-1α/β KO primary myoblasts were plated and allowed to differentiate into myotubes by replacing the media with low glucose DMEM supplemented with 2% horse serum (Sigma-Aldrich) for 4 days. After the differentiation the cells were infected with empty vector or flag-SIRT1 adenovirus as described before (Gerhart-Hines et al., 2007). Media was replaced with fresh DMEM supplemented with 2% horse serum (Sigma-Aldrich) for an additional 48 hr and, after that the cells were harvested for the different assays as described. […]
RNA from skeletal muscle tissue and C2C12 cells were extracted with RNeasy mini kit (Qiagen) according to the instructions and quantified using the NanoDrop 1000 spectrophotometer (Thermo Scientific). cDNA was synthesized with the iSCRIP cDNA synthesis kit (BioRad) using 600 ng of RNA. Quantitative RT-PCR reactions were performed using 1 μM of primers and LightCycler® 480 SYBR Green Master (Roche) on an LightCycler® 480 detection system (Roche). […]
On the technique in general: Quantitative PCR measures a nucleic acid by following its amplification.

For assay [1], the system named is inflammation related markers (TNFa, IL-6, IL-18). Nature of the assay: qPCR of inflammation related markers in gastrocnemius. In kind it is in vivo, C57BL/6J mice. Particulars: 22-month-old mice, NMN IP 500 mg/kg/day, 7 days, 500 mg/kg/day. As for the experimental part:
(§1) C57BL/6J mice of 3, 6, 22, or 24 months of age were obtained from the National Institutes of Aging mouse aging colony. Mice were acclimated for at least one-week prior to sacrifice. 3, 6, 22 and 24-month-old mice were given interperitoneal (IP) injections of 500 mg NMN/kg body weight per day or the equivalent volume of PBS for 7 consecutive days at 5:00 pm and 7:00 am on day 8 and sacrificed 4 hr after last injection. All animal studies followed the guidelines of and were approved by the Harvard Institutional Animal Care and Use Committee
C57BL/6J mice of 6 months of age were given interperitoneal (IP) injections of 300 mg DMOG/kg body weight per day or the equivalent volume of PBS for 5 consecutive days. All animal studies followed the guidelines of and were approved by the Harvard Institutional Animal Care and Use Committee
RNA from skeletal muscle and aorta were extracted with RNeasy mini kit (Qiagen) according to the instructions and quantified using the NanoDrop 1000 spectrophotometer (Thermo Scientific). cDNA was synthesized with the iSCRIP cDNA synthesis kit (BioRad) using 600 ng of RNA. Quantitative RT-PCR reactions were performed using 1 μM of primers and LightCycler® 480 SYBR Green Master (Roche) on an LightCycler® 480 detection system (Roche). Calculations were performed by a comparative method (2-ΔCT) using 18S as an internal control. […]

Another assay relates to PGC-1α/β KO myotubes. Description: Gene expression (qPCR) and HIF-1α immunoblot in PGC-1α/β KO myotubes. The arrangement: expression of mitochondrially-encoded ETC genes (ND1, CYTB, COX1, ATP6): dose or concentration left out as unconfirmed. The note with it: primary PGC-1α/β KO myotubes incubated with NMN (12 h). In kind it is cell-based, mice. As to the method: Primary myoblasts cells were isolated from WT, SIRT1 KO (Price et al., 2012) and PGC-1α/β KO (Zechner et al., 2010) mice as previously described (Price et al., 2012). WT and PGC-1α/β KO primary myoblasts were plated and allowed to differentiate into myotubes by replacing the media with low glucose DMEM supplemented with 2% horse serum (Sigma-Aldrich) for 4 days. After the differentiation the cells were infected with empty vector or flag-SIRT1 adenovirus as described before (Gerhart-Hines et al., 2007). Media was replaced with fresh DMEM supplemented with 2% horse serum (Sigma-Aldrich) for an additional 48 hr and, after that the cells were harvested for the different assays as described. To investigate the role of HIF-1α in genome asynchrony, PGC-1α/β KO primary myotubes were treated for 12 hours with 1 mM DMOG (Sigma) or 10 μM DFO (Sigma), 24 h after infection with empty vector of flag-SIRT1 adenovirus or after 12 h treatment with […] NMN (Sigma).
(§2) RNA from skeletal muscle tissue and C2C12 cells were extracted with RNeasy mini kit (Qiagen) according to the instructions and quantified using the NanoDrop 1000 spectrophotometer (Thermo Scientific). cDNA was synthesized with the iSCRIP cDNA synthesis kit (BioRad) using 600 ng of RNA. Quantitative RT-PCR reactions were performed using 1 μM of primers and LightCycler® 480 SYBR Green Master (Roche) on an LightCycler® 480 detection system (Roche). Calculations were performed by a comparative method (2-ΔCT) using 18S as an internal control. For mtDNA analysis, total DNA was extracted with DNeasy blood and tissue kit (Qiagen). mtDNA was amplified using primers specific for the mitochondrial cytochrome c oxidase subunit 2 (COX2) gene and normalized to genomic DNA by amplification of the ribosomal protein s18 (rps18) nuclear gene. Primers were designed using the IDT software (IDT) and the primer sequences can be found in Table 1.
Protein extracts from tissue or C2C12 cells were obtained by lysis in ice-cold lysis buffer (150 mM NaCl, 10 mM Tris HCl (pH 7.4), 1 mM EDTA, 1 mM EGTA, 1% Triton X-100, 0.5% NP-40) supplemented with a cocktail of protease and phosphatase inhibitors (Roche). Protein content was determined by the Bradford protein assay (Biorad), and 50 μg proteins were run on SDS-PAGE under reducing conditions. The separated proteins were then electrophoretically transferred to a polyvinylidene difluoride membrane (Perkin-Elmer). […] The immunostaining was detected using horseradish peroxidase-conjugated anti-rabbit or anti-mouse immunoglobulin for 1 h at room temperature.

In assay [2] the test system is inflammation related markers in aortas. Nature of the assay: qPCR of inflammation related markers in aortas. In kind it is in vivo, C57BL/6J mice. The note with it: 22-months-old mice, NMN IP 500 mg/kg/day, 7 days. As to the method: as §1
RNA from skeletal muscle and aorta were extracted with RNeasy mini kit (Qiagen) according to the instructions and quantified using the NanoDrop 1000 spectrophotometer (Thermo Scientific). cDNA was synthesized with the iSCRIP cDNA synthesis kit (BioRad) using 600 ng of RNA. Quantitative RT-PCR reactions were performed using 1 μM of primers and LightCycler® 480 SYBR Green Master (Roche) on an LightCycler® 480 detection system (Roche). Calculations were performed by a comparative method (2-ΔCT) using 18S as an internal control. Primers were designed using the IDT software (IDT).

Another assay deals with NAD+ levels. Nature of the assay: NAD+ measurement in skeletal muscle of NMN-treated mice. In kind it is in vivo, C57BL/6J mice. Particulars: for levels of cellular NAD+: young and old. As for the experimental part:
(§3) C57BL/6J mice of 3, 6, 22, 24, or 30 months of age were obtained from the National Institutes of Aging mouse aging colony. Mice were acclimated for at least one-week prior to sacrifice. 3, and 24-month-old mice were given interperitoneal (IP) injections of 500 mg NMN/kg body weight per day or the equivalent volume of PBS for 7 consecutive days at 5:00 pm and 7:00 am on day 8 and sacrificed 4 hr after last injection. All animal studies followed the guidelines of and were approved by the Harvard Institutional Animal Care and Use Committee
NAD^+ from C2C12 cells and skeletal muscle was quantified with a commercially available kit (BioVision) according to the manufacturer's instructions and as described before (Gomes et al., Biochim. Biophys. Acta. 1822:185-195 (2012)).
C57BL/6J mice of 6, 22, or 30 months of age were obtained from the National Institutes of Aging mouse aging colony. Additionally 22 months old caloric restricted mice were also obtained from the National Institutes of Aging mouse aging colony. EGLN1 KO, SIRT1 KO and SIRT1 OE mice were generated as previously described (Minamishima et al., 2008; Price et al., 2012). Mice were acclimated for at least one-week prior to sacrifice. 3, 6, 22 and 24-month-old mice were given interperitoneal (IP) injections of 500 mg NMN/kg body weight per day or the equivalent volume of PBS for 7 consecutive days at 5:00 pm and 7:00 am on day 8 and sacrificed 4 hr after last injection.
NAD^+ from skeletal muscle was quantified with a commercially available kit (BioVision) according to the manufacturer's instructions and as described before (Gomes et al., 2012).
C57BL/6J mice of 3, 6, 22, or 24 months of age were obtained from the National Institutes of Aging mouse aging colony. Mice were acclimated for at least one-week prior to sacrifice. […]
NAD^+ from C2C12 cells and skeletal muscle was quantified with a commercially available kit (BioVision) according to the manufacturer's instructions and as described before (Gomes et al., 2012).

Assay [3] concerns HIF-1α target genes (PGK-1, Glut1, PKD1, VEGFa). Nature of the assay: qPCR of HIF-1α target genes in gastrocnemius of NMN-treated mice. The assay is classed as in vivo. The note with it: 24-month-old mice; NMN 500 mg/kg IP, one week. As to the method:
as §3
as §2, with “Primers were designed using the IDT software (IDT) and the primer sequences can be found in Table 1.” left out

On to `NC(=O)c1ccc[n+]([C@@H]2O[C@H](COP(=O)([O-])O)[C@@H](O)[C@H]2O)c1` [NMN, nicotinamide mononucleotide], for which the “expression of mitochondrial-encoded genes” value in the assay on primary myoblasts is “completely abolishes the ability of NMN to induce the expression of mitochondrial-encoded genes”. The “expression of inflammation markers (TNFa, IL-6, IL-18) in the skeletal muscle” value in assay [1] is given as “completely reversed; also recorded: reverses age-related increase in inflammatory markers in the skeletal muscle”. In addition, in the assay with PGC-1α/β KO myotubes, the “expression of mitochondrially-encoded ETC genes (ND1, CYTB, COX1, ATP6)” value was “induced expression of mitochondrially-encoded ETC genes”. For the same compound, in assay [2] (FIG. 26), the “inflammation related markers (IL-6, TNFa, Nlrp3, IL-1b, CD68 and IL-10) in aortas” value is “reduces inflammation in aortas from old mice”. For the same compound, the “inflammatory markers (VEGF and IL-18) in aortas” value in assay [2] (FIG. 27) is “reduces inflammation in aortas from old mice”. For the same compound, the “levels of cellular NAD+” value is listed as “approximately 2 fold” with NAD+ levels (3- and 24-month-old C57BL/6J mice, NMN 500 mg/kg IP, one week, treated vs untreated); 2 fold with NAD+ levels (6- and 22-month-old C57BL/6J mice, NMN one week). The “NAD+ levels in the skeletal muscle of old mice” value with NAD+ levels (gastrocnemius, 3- and 24-month-old C57BL6J mice, NMN IP 500 mg/kg/day, 7 days, colorimetric NAD+ assay) is recorded as “increases NAD+ levels”. Also, the “expression of HIF-1α target genes” value in assay [3] was “suppressed the expression of HIF-1α target genes”.

Values taken from patent publication US20150265642A1, “NAD BIOSYNTHESIS AND PRECURSORS IN THE PREVENTION AND TREATMENT OF INFLAMMATION” (PRESIDENT AND FELLOWS OF HARVARD COLLEGE, priority 2013, published 2015).
